The assay relates to IFNγ induced CXCL10 and CXCL9 secretion in EpiAirway tissue cultures. Description: Inhibition of IFNγ induced chemokines CXCL9 and CXCL10 in human 3D airway cultures. Type of assay: cell-based. The conditions noted are these: 192 h, day 8, ±STDV. On the procedure:
Assay 7: Inhibition of IFNγ and IL-27 Induced Chemokines CXCL9 and CXCL10 in Human 3D Airway Cultures
EpiAirway tissue cultures were obtained from Mattek (AIR-100). Cultures were derived from asthmatic donors. In a cell culture insert, human derived tracheal/bronchial epithelial cells were grown and differentiated on a porous membrane support, allowing an air-liquid interface with warmed culture medium below the cells and a gaseous test atmosphere above. Tissues were cultured in maintenance media (Mattek, AIR-100-MM) in a 37° C., 5% CO2 humidified incubator. Four donors were tested. On Day 0, tissue cultures were treated with test compounds at 10 μM, 1 μM and/or 0.1 μM. Compounds were diluted in dimethyl sulfoxide (DMSO, Sigma) to a final concentration of 0.1%. DMSO at 0.1% was used as a vehicle control. Test compounds were incubated with cultures for 1 hour at 37° C., 5% CO2, followed by the addition of pre-warmed media containing IFNγ (R&D Systems) or IL-27 (R&D Systems) at a final concentration at 100 ng/ml. Tissue cultures were maintained for 8 days. Media was replaced every 2 days with fresh media containing compounds and IFNγ or IL-27. […] Data is expressed as % Inhibition+/−standard deviation (±STDV). Percent inhibition was determined by compound inhibitory potency against IFNγ or IL-27 induced CXCL10 or CXCL9 secretion compared to vehicle treated cells. […]

Consider `CCc1cc(O)c(F)cc1-c1ccc2c(-c3nc4c([nH]3)CN(C(C)C)[C@H](C(=O)N3CC(N(C)C)C3)C4)n[nH]c2c1` [Example 2, (S)-(3-(dimethylamino)azetidin-1-yl)(2-(6-(2-ethyl-5-fluoro-4-hydroxyphenyl)-1H-indazol-3-yl)-5-isopropyl-4,5,6,7-tetrahydro-3H-imidazo[4,5-c]pyridin-6-yl)methanone], for which the inhibition at 1 µM amounted to 65%.

For the origin of these results see patent publication US10550118B2, “JAK inhibitors containing a 4-membered heterocyclic amide” (THERAVANCE BIOPHARMA R&D IP, LLC, priority 2017, dated 2020).
